Test systems include NCI-H226; SF-539; SK-MEL-2; K562; LXFL 529; SNB-19; A549; HOP-62; SNB-75; OVCAR-5; SF-295; HT-29; 786-0; OVCAR-3; NCI-H23; Malme-3M; BT-549; HCT-15; UO-31; HL-60.
What all share (assay): NCI tumour cell line growth inhibition, 48 h

The structures appear in SMILES notation.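 Protocol summary: plate cells (96-well), add compound at 5 concentrations, incubate 48 h, interpolate endpoints linearly. The concentration for 50% growth inhibition is given as GI50.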 Active and inactive are the calls of the source. Cut-off read from the data, not from the text of the source: active = GI50 up to about 1.1 µM and inactive = higher.

Turning to `COc1cc(C2c3cc4c(cc3[C@@H](Nc3ccc(F)cc3)C3COC(=O)[C@H]23)OCO4)cc(OC)c1O` (some centres undefined), the GI50 is 0.897 µM (active) in the assay on NCI-H226; 1.86 µM (inactive) in the assay with SF-539; 6.49 µM (inactive) in the assay with SK-MEL-2; 3.87 µM (inactive) with K562; 6.67 µM (inactive) in the assay on LXFL 529; 1.38 µM (inactive) in the assay on SNB-19. Moreover, the GI50 was 0.224 µM (active) in the assay with A549; 0.635 µM (active) in the assay with HOP-62; 1.91 µM (inactive) with SNB-75; 5.3 µM (inactive) in the assay on OVCAR-5; 0.834 µM (active) in the assay on SF-295; 3.41 µM (inactive) in the assay on HT-29. Also, the GI50 with 786-0 is 1.47 µM (inactive); with OVCAR-3, 5.04 µM (inactive); in the assay on NCI-H23 it was 1.3 µM (inactive); in the assay on Malme-3M, 2.48 µM (inactive); with BT-549 it was 2.61 µM (inactive); in the assay with HCT-15, 3.56 µM. Besides, the GI50 with UO-31 is 1.65 µM (inactive).
In the case of `Cc1ccc(NC(=O)CCc2nnc3s/c(=C\C=C\c4ccccc4)c(=O)n23)cc1`, the GI50 is > 100 µM (inactive) with NCI-H226; 55.3 µM (inactive) with SF-539; 68.7 µM (inactive) in the assay on SK-MEL-2; 56 µM (inactive) in the assay with HL-60; > 100 µM (inactive) in the assay with K562; 60.7 µM (inactive) with LXFL 529. Also, the GI50 was > 79.6 µM (inactive) in the assay on SNB-19; > 100 µM (inactive) in the assay with A549; > 95.5 µM (inactive) with HOP-62; > 83.2 µM (inactive) in the assay on SNB-75; > 100 µM (inactive) in the assay on OVCAR-5; > 100 µM (inactive) in the assay with SF-295. Further, the GI50 is > 100 µM (inactive) in the assay on HT-29; > 100 µM (inactive) with 786-0; 44.9 µM (inactive) in the assay on OVCAR-3; > 100 µM (inactive) in the assay on NCI-H23; > 100 µM (inactive) in the assay on Malme-3M; > 63.8 µM (inactive) with BT-549. The GI50 in the assay with HCT-15 was > 100 µM; with UO-31 it was > 100 µM (inactive).
Consider `NC(=O)/C=C/c1c[nH]c2nccnc12`, for which the GI50 in the assay with NCI-H226 was 0.78 µM (active); in the assay with SF-539 it was 2.24 µM (inactive); in the assay on SK-MEL-2 it was 1.79 µM (inactive); in the assay with HL-60, 2.26 µM (inactive); in the assay with K562 it was 0.966 µM (active); in the assay with LXFL 529 it was 0.103 µM (active). Also, the GI50 in the assay with SNB-19 was 0.973 µM (active); in the assay with A549 it was 4.41 µM (inactive); in the assay with HOP-62, 2.94 µM (inactive); with SNB-75, 1.78 µM (inactive); in the assay with OVCAR-5, 0.15 µM (active); in the assay with SF-295, 3.26 µM (inactive). Also, the GI50 in the assay with HT-29 is 2.68 µM (inactive); in the assay on 786-0, 3.34 µM (inactive); with OVCAR-3, 2.34 µM (inactive); in the assay with NCI-H23, 0.678 µM (active); in the assay on Malme-3M, 0.726 µM (active); with BT-549, 2.2 µM (inactive). The GI50 was 3.27 µM in the assay on HCT-15 and 0.735 µM (active) in the assay on UO-31.
Take `N=c1nc2n(cc1F)[C@@H]1O[C@H](CO)[C@@H](O)[C@@H]1O2`: the GI50 in the assay on NCI-H226 is 17.3 µM (inactive); in the assay on SF-539, 53 µM (inactive); in the assay on SK-MEL-2 it was > 100 µM (inactive); in the assay with HL-60, 0.317 µM (active); in the assay with K562, 4.33 µM (inactive); in the assay on LXFL 529, > 26.5 µM (inactive). Further, the GI50 in the assay with SNB-19 is > 92.9 µM (inactive); in the assay on A549, 0.335 µM (active); in the assay with HOP-62, 2.36 µM (inactive); in the assay on SNB-75, > 70.6 µM (inactive); with OVCAR-5, > 100 µM (inactive); with SF-295, 49.9 µM (inactive). Moreover, the GI50 with HT-29 is 34.4 µM (inactive); in the assay on 786-0, 4.46 µM (inactive); in the assay on OVCAR-3, 9.1 µM (inactive); in the assay with NCI-H23 it was 2.29 µM (inactive); with Malme-3M, 9.42 µM (inactive); with BT-549, > 100 µM (inactive). For the same compound, the GI50 in the assay with HCT-15 was > 90.2 µM; in the assay with UO-31, 24.6 µM (inactive).
